This note sets out measurements from US12479840B2, “HMG-CoA reductase degradation inducing compound” (Uppthera, priority 2020, dated 2025).

The assay has as its target T1, HMG-CoA reductase (Homo sapiens, UniProt P04035).
T1 construct: endogenous in cells; host or cells: HepG2 (Korea Cell Line Bank)
T1 sequence (P04035 1-888): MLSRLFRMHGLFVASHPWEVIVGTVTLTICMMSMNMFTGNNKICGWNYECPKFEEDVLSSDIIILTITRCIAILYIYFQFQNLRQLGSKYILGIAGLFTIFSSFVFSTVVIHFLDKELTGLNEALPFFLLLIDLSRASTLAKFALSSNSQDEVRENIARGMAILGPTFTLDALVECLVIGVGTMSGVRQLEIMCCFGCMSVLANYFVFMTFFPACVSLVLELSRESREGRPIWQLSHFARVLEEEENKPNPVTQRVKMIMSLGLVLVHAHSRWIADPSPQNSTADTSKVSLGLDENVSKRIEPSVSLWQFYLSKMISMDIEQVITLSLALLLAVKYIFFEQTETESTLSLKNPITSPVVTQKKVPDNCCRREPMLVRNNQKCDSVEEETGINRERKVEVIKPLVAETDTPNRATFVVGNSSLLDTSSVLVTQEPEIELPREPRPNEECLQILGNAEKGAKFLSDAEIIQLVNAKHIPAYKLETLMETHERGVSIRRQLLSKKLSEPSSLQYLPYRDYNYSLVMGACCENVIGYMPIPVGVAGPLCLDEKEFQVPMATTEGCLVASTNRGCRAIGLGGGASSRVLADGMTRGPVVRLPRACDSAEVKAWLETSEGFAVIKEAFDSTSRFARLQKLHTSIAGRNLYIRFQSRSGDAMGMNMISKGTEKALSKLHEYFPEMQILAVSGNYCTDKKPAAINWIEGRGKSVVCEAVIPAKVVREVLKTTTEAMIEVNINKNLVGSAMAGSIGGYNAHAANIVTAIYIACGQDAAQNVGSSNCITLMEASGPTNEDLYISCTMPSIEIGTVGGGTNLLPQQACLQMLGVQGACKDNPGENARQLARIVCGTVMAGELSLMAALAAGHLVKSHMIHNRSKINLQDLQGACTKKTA
The assay is described as follows: HMG-CoA reductase (HMGCR) degradation in HepG2 cells by western blotting. The format is cell-based. To be noted: treated for 18 hours, ratio of HMG-CoA reductase to GAPDH, read-out: DC50. The procedure, abridged:
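Western blot read-out: HMGCR protein probed (1:500, 16 hours at 4° C) alongside GAPDH loading control on 15 μg BCA-normalised RIPA lysates. Lysates came from HepG2 cells (P105–P110) exposed for 18 hours to a 10-point, three-fold series starting at 3 μM.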
Background: Immunoblotting shows a protein as a band on a membrane.
With `Cc1ncsc1-c1ccc(CNC(=O)[C@@H]2C[C@@H](O)CN2C(=O)[C@@H](NC(=O)COCCOCCNC(=O)O[C@H]2C[C@@H](C)C=C3C=C[C@H](C)[C@H](CC[C@@H]4C[C@@H](O)CC(=O)O4)[C@H]32)C(C)(C)C)cc1` [Compound 15, (1S,3R,7S,8S,8aR)-8-(2-((2R,4R)-4-hydroxy-6-oxotetrahydro-2H-pyran-2-yl)ethyl)-3,7-dimethyl-1,2,3,7,8,8a-hexahydronaphthalen-1-yl (2-(2-(2-(((S)-1-((2S,4R)-4-hydroxy-2-((4-(4-methylthiazol-5-yl)benzyl)carbamoyl)pyrrolidin-1-yl)-3,3-dimethyl-1-oxobutan-2-yl)amino)-2-oxoethoxy)ethoxy)ethyl)carbamate], the DC50 (as a rule, the concentration giving 50% degradation) is below 0.05 µM.
On to `C[C@H]1C=C2C=C[C@H](C)[C@H](CC[C@@H]3C[C@@H](O[Si](C)(C)C(C)(C)C)CC(=O)O3)[C@H]2[C@@H](OC(=O)NCCOCCOCCOCCOCCOCCOCCNc2cccc3c2C(=O)N(C2CCC(=O)NC2=O)C3=O)C1` (stereo partly drawn) [Compound 50, (1S,3R,7S,8S,8aR)-8-(2-((2R,4R)-4-((tert-butyldimethylsilyl)oxy)-6-oxotetrahydro-2H-pyran-2-yl)ethyl)-3,7-dimethyl-1,2,3,7,8,8a-hexahydronaphthalen-1-yl (20-((2-(2,6-dioxopiperidin-3-yl)-1,3-dioxoisoindolin-4-yl)amino)-3,6,9,12,15,18-hexaoxaicosyl)carbamate], for which the DC50 is below 0.05 µM.
Then `C[C@H]1C=C2C=C[C@H](C)[C@H](CC[C@@H]3C[C@@H](O[Si](C)(C)C(C)(C)C)CC(=O)O3)[C@H]2[C@@H](OC(=O)NCCCCCCCCCCCNc2cccc3c2C(=O)N(C2CCC(=O)NC2=O)C3=O)C1` (stereo partly drawn) [Compound 57, (1S,3R,7S,8S,8aR)-8-(2-((2R,4R)-4-((tert-butyldimethylsilyl)oxy)-6-oxotetrahydro-2H-pyran-2-yl)ethyl)-3,7-dimethyl-1,2,3,7,8,8a-hexahydronaphthalen-1-yl (11-((2-(2,6-dioxopiperidin-3-yl)-1,3-dioxoisoindolin-4-yl)amino)undecyl)carbamate], with below 0.05 µM; and `CN[C@@H](C)C(=O)N[C@H](C(=O)N1CCC[C@H]1c1nc(C(=O)c2cccc(OCCOCCOCCNC(=O)O[C@H]3C[C@@H](C)C=C4C=C[C@H](C)[C@H](CC[C@@H]5C[C@@H](O)CC(=O)O5)[C@H]43)c2)cs1)C1CCCCC1` [Compound 31, (1S,3R,7S,8S,8aR)-8-(2-((2R,4R)-4-hydroxy-6-oxotetrahydro-2H-pyran-2-yl)ethyl)-3,7-dimethyl-1,2,3,7,8,8a-hexahydronaphthalen-1-yl (2-(2-(2-(3-(2-((S)-1-((S)-2-cyclohexyl-2-((S)-2-(methylamino)propanamido)acetyl)pyrrolidin-2-yl)thiazole-4-carbonyl)phenoxy)ethoxy)ethoxy)ethyl)carbamate], with below 0.05 µM.
As for `C[C@H]1C=C2C=C[C@H](C)[C@H](CC[C@@H]3C[C@@H](O[Si](C)(C)C(C)(C)C)CC(=O)O3)[C@H]2[C@@H](OC(=O)NCCCCN2CCC(Nc3cccc4c3C(=O)N(C3CCC(=O)NC3=O)C4=O)CC2)C1` (stereo partly drawn) [Compound 72, (1S,3R,7S,8S,8aR)-8-(2-((2R,4R)-4-((tert-butyldimethylsilyl)oxy)-6-oxotetrahydro-2H-pyran-2-yl)ethyl)-3,7-dimethyl-1,2,3,7,8,8a-hexahydronaphthalen-1-yl (4-(4-((2-(2,6-dioxopiperidin-3-yl)-1,3-dioxoisoindolin-4-yl)amino)piperidin-1-yl)butyl)carbamate], the figure is below 0.05 µM.
In the case of `Cc1ncsc1-c1ccc(CNC(=O)[C@@H]2C[C@@H](O)CN2C(=O)[C@@H](NC(=O)C2(F)CC2)C(C)(C)C)c(OCCOCCOCCOCCNC(=O)O[C@H]2C[C@@H](C)C=C3C=C[C@H](C)[C@H](CC[C@@H]4C[C@@H](O)CC(=O)O4)[C@H]32)c1` [Compound 25, (1S,3R,7S,8S,8aR)-8-(2-((2R,4R)-4-hydroxy-6-oxotetrahydro-2H-pyran-2-yl)ethyl)-3,7-dimethyl-1,2,3,7,8,8a-hexahydronaphthalen-1-yl (2-(2-(2-(2-(2-(((2S,4R)-1-((S)-2-(1-fluorocyclopropane-1-carboxamido)-3,3-dimethylbutanoyl)-4-hydroxypyrrolidine-2-carboxamido)methyl)-5-(4-methylthiazol-5-yl)phenoxy)ethoxy)ethoxy)ethoxy)ethyl)carbamate], the DC50 is below 0.05 µM.
Then `C[C@H]1C=C2C=C[C@H](C)[C@H](CC[C@@H]3C[C@@H](O[Si](C)(C)C(C)(C)C)CC(=O)O3)[C@H]2[C@@H](OC(=O)NCCCCCNC(=O)COc2cccc3c2C(=O)N(C2CCC(=O)NC2=O)C3=O)C1` (stereo partly drawn) [Compound 74, (1S,3R,7S,8S,8aR)-8-(2-((2R,4R)-4-((tert-butyldimethylsilyl)oxy)-6-oxotetrahydro-2H-pyran-2-yl)ethyl)-3,7-dimethyl-1,2,3,7,8,8a-hexahydronaphthalen-1-yl (5-(2-((2-(2,6-dioxopiperidin-3-yl)-1,3-dioxoisoindolin-4-yl)oxy)acetamido)pentyl)carbamate], with below 0.05 µM; and `C[C@H]1C=C2C=C[C@H](C)[C@H](CC[C@@H]3C[C@@H](O)CC(=O)O3)[C@H]2[C@@H](OC(=O)NCCOCCNc2cccc3c2C(=O)N(C2CCC(=O)NC2=O)C3=O)C1` (stereo partly drawn) [Compound 87, (1S,3R,7S,8S,8aR)-8-(2-((2R,4R)-4-hydroxy-6-oxotetrahydro-2H-pyran-2-yl)ethyl)-3,7-dimethyl-1,2,3,7,8,8a-hexahydronaphthalen-1-yl (2-(2-((2-(2,6-dioxopiperidin-3-yl)-1,3-dioxoisoindolin-4-yl)amino)ethoxy)ethyl)carbamate], with below 0.05 µM.
Consider `C[C@H]1C=C2C=C[C@H](C)[C@H](CC[C@@H]3C[C@@H](O)CC(=O)O3)[C@H]2[C@@H](OC(=O)NCCCCN2CCC(Nc3cccc4c3C(=O)N(C3CCC(=O)NC3=O)C4=O)CC2)C1` (stereo partly drawn) [Compound 73, (1S,3R,7S,8S,8aR)-8-(2-((2R,4R)-4-hydroxy-6-oxotetrahydro-2H-pyran-2-yl)ethyl)-3,7-dimethyl-1,2,3,7,8,8a-hexahydronaphthalen-1-yl (4-(4-((2-(2,6-dioxopiperidin-3-yl)-1,3-dioxoisoindolin-4-yl)amino)piperidin-1-yl)butyl)carbamate], for which the half-maximal degradation concentration (DC50) is below 0.05 µM.
With `C[C@H]1C=C2C=C[C@H](C)[C@H](CC[C@@H]3C[C@@H](O[Si](C)(C)C(C)(C)C)CC(=O)O3)[C@H]2[C@@H](OC(=O)NCCCn2cnc(CNc3cccc4c3C(=O)N(C3CCC(=O)NC3=O)C4=O)c2)C1` (stereo partly drawn) [Compound 102, (1S,3R,7S,8S,8aR)-8-(2-((2R,4R)-4-((tert-butyldimethylsilyl)oxy)-6-oxotetrahydro-2H-pyran-2-yl)ethyl)-3,7-dimethyl-1,2,3,7,8,8a-hexahydronaphthalen-1-yl (3-(4-(((2-(2,6-dioxopiperidin-3-yl)-1,3-dioxoisoindolin-4-yl)amino)methyl)-1H-imidazol-1-yl)propyl)carbamate], the half-maximal degradation concentration (DC50) is below 0.05 µM.
